Experimental data: US10988465B2, “CXCR4 inhibitors and uses thereof” (X4 Pharmaceuticals, Inc., priority 2016, dated 2021)
Like-named read-outs stand apart in the source and are kept apart here.

Key:
[1] = Mouse brain uptake assay (MBUA), 3 mg/kg IV, 0-24 h, 4 time points; type: in vivo, male CD1 mice; conditions: for Kp / clearance / half-life / AUC(0-t) / Kp uu: male; for Kp: CD1, mouse, brain/plasma, iv, 3 mg/kg; for clearance / half-life: CD1, plasma, 4 time points; for clearance / half-life / AUC(0-t) / Kp uu / fraction unbound: mouse; for clearance / half-life / AUC(0-t) / Kp uu: 3 mg/kg IV, 0-24 h; for half-life: read-out: t½ (converted); for AUC(0-t) / Kp uu: CD1; for Kp uu: unbound brain/unbound plasma
Method: Example 38: Pharmacokinetics and Brain Penetration Experiment to Determine Brain and Plasma Concentrations of Compounds after IV Administration to Male CD1 Mice
The study design (9 animals) consisted of administrating the drug (IV: 3 mg/kg (5 mL/kg) via tail vein injection) and collecting samples at terminal bleeding for plasma and brain at 0.083, 0.5 and 1 h. The IV dosing solution was prepared in 50 mM citrate buffer (pH 4.0) at 0.6 mg/mL. The blood collection was performed as follows: the animal was restrained manually and approximately 150 μL blood/time point was collected into a dipotassium EDTA tube via retro orbital puncture under anesthesia with isoflurane. The blood sample was put on ice and centrifuged to obtain a plasma sample (2000 g, 5 min under 4° C.) within 15 minutes. The brain collection was performed as follows: a mid-line incision was made in the animal's scalp and the skin was retracted. Using small bone cutters and rongeurs, the skull overlying the brain was removed. The brain was removed using a spatula and the brain rinsed with cold saline. The brain was placed in screw-top tubes, and the tubes were stored at −70° C. until analysis.
An aliquot of 30 μL sample was added to 150 μL MeCN containing 50 ng/mL IS (Dexamethasone). The mixture was vortexed for 5 min and centrifuged at 14,000 rpm for 5 min. An aliquot of 5 μL supernatant was injected for LC-MS/MS analysis.
An aliquot of 30 μL brain homogenate (brain:PBS=1:3, w/v) sample was added to 150 μL IS in MeCN (Dexamethasone, 50 ng/mL). The mixture was vortexed for 5 min and centrifuged at 14,000 rpm for 5 min. An aliquot of 5 μL supernatant was injected for LC-MS/MS analysis.
The sample analysis was performed on LCMS/MS-003 (API4000, triple quadruple) under the following conditions: positive ion, ESI, MRM detection using dexamethasone as internal standard. HPLC conditions: mobile phase A: H2O (0.025% formic acid (FA) with 1 mM NH4OAc); mobile phase B: MeOH (0.025% FA with 1 mM NH4OAc) on Waters X-Bridge C18 (2.1×50 mm, 2.5 μm) column at 60° C.
A similar experiment was performed with 4 time points taken from 0-24 h.

[2] = target: T1, Jurkat cells expressing CXCR4 (Homo sapiens, UniProt P61073); experiment: Chemokine (CXCL12-AF647) binding inhibition assay; conditions: CXCL12-AF647 25 ng/mL, read-out: IC50 CXCL-12 binding Jurkat
T1 construct: endogenous in cells; host or cells: Jurkat
In short: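 Cells in HBSS, 20 mM HEPES, 0.2% BSA, pH 7.4, preincubated 15 min at room temperature with compound, then 25 ng/mL CXCL12-AF647 for 30 min. After washing and paraformaldehyde fixation, bound ligand read by flow cytometry; percent inhibition calculated from MFI relative to unlabeled and ligand-only controls.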

[3] = in vitro; conditions: human, Caco-2, pH 7.4
In short: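 Bidirectional permeability across Caco-2 monolayers in HBSS (pH 7.4) at a test concentration of 10 μM, incubated 0 and 90 min at 37° C (n=2). Monolayer integrity was assessed by TEER and Lucifer yellow. Papp was derived from LC-MS/MS-measured concentrations.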

[4] = target: T2, CXCR-4 transfected U87 cell line (U87.CXCR4) (Homo sapiens, UniProt P61073); experiment: Intracellular CXCL-12-induced calcium mobilization assay (FLIPR); type: cell-based; conditions: U87.CXCR4 cells; CXCL-12 25-50 ng/mL; compound added 15 min before; read-out: IC50 CXCL-12 Ca^2+ flux U87.CXCR4+
T2 construct: expressed in transfected cells; host or cells: U87 (U87.CXCR4)
In short: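 CXCL-12 (25-50 ng/mL) was the stimulus, and the intracellular calcium rise was tracked kinetically by FLIPR at 37 °C. Cells were U87.CXCR4 transfectants pre-loaded 45 min at 37 °C with 4 μM (final) Fluo-2 AM in HEPES-buffered HBSS with 0.2% BSA, pH 7.4.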

[5] = fraction unbound to brain proteins, read-out: Fu (b) %
[6] = fraction unbound to plasma proteins, read-out: Fu (p) %

T2 sequence (P61073 whole entry): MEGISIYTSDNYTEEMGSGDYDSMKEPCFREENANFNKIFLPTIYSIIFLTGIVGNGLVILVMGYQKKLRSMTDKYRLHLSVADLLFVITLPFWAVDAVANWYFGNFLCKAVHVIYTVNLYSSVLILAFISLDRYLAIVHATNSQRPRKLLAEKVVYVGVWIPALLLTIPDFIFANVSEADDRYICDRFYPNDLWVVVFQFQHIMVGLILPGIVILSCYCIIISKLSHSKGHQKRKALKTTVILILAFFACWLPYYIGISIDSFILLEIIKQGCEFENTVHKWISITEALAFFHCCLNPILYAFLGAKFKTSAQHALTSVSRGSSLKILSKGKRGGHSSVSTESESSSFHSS
T1 sequence (P61073 whole entry): as above

Compound | Kp [1] | clearance [1] | half-life [1] | AUC(0-t) ([1]; brain, read-out: AUClast (b)) | AUC(0-t) ([1]; plasma, read-out: AUClast (P)) | IC50 [2] | Papp A→B at 90 min, 10 μM [3] | Papp B→A at 90 min, 10 μM [3] | efflux ratio at 90 min, 10 μM [3] | IC50 [4] | Kp uu [1] | fraction unbound [1, 5] | fraction unbound [1, 6]
Cc1cccnc1[C@@H]1CCC[C@H](c2nc3cccc(N4CCN(C5CC5)CC4)c3[nH]2)N1C [I-76] | 57.2 | 46.5 mL/min/kg | 11.6 min | 59800 ng·h/mL | 1050 ng·h/mL | 0.01 to 100 nM | > 30 ×10⁻⁶ cm/s | 10 to 30 ×10⁻⁶ cm/s | 0.1 to 10 | 0.01 to 100 nM |  |  | 
CO[C@H]1C[C@H](c2nc3cccc(N4CCN(C)CC4)c3[nH]2)N(C)[C@H](c2ncccc2C)C1 [I-103] | 7.3 | 102 mL/min/kg | 16.7 min | 3280 ng·h/mL | 449 ng·h/mL | 0.01 to 100 nM | 10 to 30 ×10⁻⁶ cm/s | 10 to 30 ×10⁻⁶ cm/s | 0.1 to 10 | 100 to 1000 nM |  |  | 
Cc1cccnc1[C@@H]1CCC[C@H](c2nc3cccc(N4CC5CCC(C4)N5C)c3[nH]2)N1C [I-56] | 1.94 | 32.3 mL/min/kg | 184 min | 3000 ng·h/mL | 1540 ng·h/mL | 0.01 to 100 nM | 10 to 30 ×10⁻⁶ cm/s | 10 to 30 ×10⁻⁶ cm/s | 0.1 to 10 | 0.01 to 100 nM | 0.35 | 0.013 | 0.073
Cc1cccnc1[C@@H]1CCC[C@H](c2nc3cccc(N4CCN5CCCC5C4)c3[nH]2)N1C (stereo partly shown) [I-66] | 44.5 | 212 mL/min/kg | 18.6 min | 9320 ng·h/mL | 209 ng·h/mL | 0.01 to 100 nM | 10 to 30 ×10⁻⁶ cm/s | 10 to 30 ×10⁻⁶ cm/s | 0.1 to 10 | 0.01 to 100 nM |  |  | 
Cc1c(Cl)ccnc1[C@@H]1CCC[C@H](c2nc3cccc(N4CCN(C)CC4)c3[nH]2)N1C [I-82] | 4.27 | 172 mL/min/kg | 16.3 min | 1150 ng·h/mL | 269 ng·h/mL | 0.01 to 100 nM | 10 to 30 ×10⁻⁶ cm/s | 10 to 30 ×10⁻⁶ cm/s | 0.1 to 10 | 0.01 to 100 nM | 0.65 | 0.005 | 0.033
Cc1cc(F)cnc1[C@@H]1CCC[C@H](c2nc3cccc(N4CCN(C)CC4)c3[nH]2)N1C [I-69] | 15 | 168 mL/min/kg | 16.9 min | 4080 ng·h/mL | 272 ng·h/mL | 0.01 to 100 nM | 10 to 30 ×10⁻⁶ cm/s | 10 to 30 ×10⁻⁶ cm/s | 0.1 to 10 | 0.01 to 100 nM | 1.98 | 0.016 | 0.121
CN1CCC(n2ccnc2[C@H]2CCC[C@@H](c3ncccc3Cl)N2C)CC1 [I-170] | 7.23 | 56 mL/min/kg | 229 min | 6410 ng·h/mL | 887 ng·h/mL | 0.01 to 100 nM | 10 to 30 ×10⁻⁶ cm/s | 10 to 30 ×10⁻⁶ cm/s | 0.1 to 10 | ≥ 1000 nM |  |  | 
Cc1cccnc1[C@@H]1CCC[C@H](c2nc3cccc(N4CCN(C(C)C)CC4)c3[nH]2)N1 [I-128] | 2.5 |  |  | 3940 ng·h/mL | 1580 ng·h/mL | 0.01 to 100 nM | 0.1 to 10 ×10⁻⁶ cm/s | 10 to 30 ×10⁻⁶ cm/s | 0.1 to 10 | 0.01 to 100 nM | 0.2 | 0.011 | 0.135
CN1[C@@H](c2nc3cccc(N4CCN5CCCC5C4)c3[nH]2)CCC[C@H]1c1ncccc1Cl (stereo partly shown) [I-96] | 31.2 | 102 mL/min/kg | 13.7 min | 15300 ng·h/mL | 14800 ng·h/mL | 0.01 to 100 nM |  |  |  | 100 to 1000 nM | 11.3 | 0.012 | 0.033
CCN1CCC(Cn2c([C@H]3CCC[C@@H](c4ncccc4C)N3C)nc3ccccc32)CC1 [I-22, 1-((1-ethylpiperidin-4-yl)methyl)-2-((2R,6S)-1-methyl-6-(3-methylpyridin-2-yl)piperidin-2-yl)-1H-benzo[d]imidazole] |  |  |  |  |  | 0.01 to 100 nM | 0.1 to 10 ×10⁻⁶ cm/s | 10 to 30 ×10⁻⁶ cm/s | 0.1 to 10 | 0.01 to 100 nM |  |  | 
Cc1cccnc1[C@@H]1CCC[C@H](c2nc3ccccc3n2CC2CCN(C)CC2)N1CC(F)(F)F [I-26] |  |  |  |  |  | ≥ 1000 nM | 10 to 30 ×10⁻⁶ cm/s | 10 to 30 ×10⁻⁶ cm/s | 0.1 to 10 | ≥ 1000 nM |  |  | 
Cc1cccnc1[C@@H]1CCC[C@H](c2nccn2CCCN(C)C)N1C [I-165, N,N-dimethyl-3-(2-((2R,6S)-1-methyl-6-(3-methylpyridin-2-yl)piperidin-2-yl)-1H-imidazol-1-yl)propan-1-amine] |  |  |  |  |  | 0.01 to 100 nM | 0.1 to 10 ×10⁻⁶ cm/s | 10 to 30 ×10⁻⁶ cm/s | 0.1 to 10 | 100 to 1000 nM |  |  | 
Cc1cccnc1[C@@H]1CCC[C@H](c2nc3cccc(N4CCN(C)C(C)C4)c3[nH]2)N1C (stereo partly shown) [I-53] |  |  |  |  |  | 0.01 to 100 nM | 10 to 30 ×10⁻⁶ cm/s | 10 to 30 ×10⁻⁶ cm/s | 0.1 to 10 | 0.01 to 100 nM |  |  | 
Cc1cccnc1[C@@H]1CCC[C@H](c2nccn2CCc2ccccn2)N1 [I-177] |  |  |  |  |  | ≥ 1000 nM | 10 to 30 ×10⁻⁶ cm/s | 10 to 30 ×10⁻⁶ cm/s | 0.1 to 10 | ≥ 1000 nM |  |  | 
Cc1cccnc1[C@@H]1CCC[C@H](c2nccn2CCn2cccn2)N1 [I-176] |  |  |  |  |  | ≥ 1000 nM | 10 to 30 ×10⁻⁶ cm/s | > 30 ×10⁻⁶ cm/s | 0.1 to 10 | ≥ 1000 nM |  |  | 
